These results are taken from patent US9066948B2, “Oxadiazolo[3,2-a]pyrimidines and thiadiazolo[3,2-a]pyrimidines” (THE UNITED STATES OF AMERICA AS REPRESENTED BY THE …, priority 2010, dated 2015).

Common to all, as to format: cell-based
Experiment [1] addresses T1, HEK293 cells stably expressing normal human αIIbβ3 (Homo sapiens, UniProt P05106+P08514).
T1 construct: expressed in transfected cells; host or cells: HEK293
Put plainly: αIIbβ3-mediated cell adhesion to fibrinogen. To be noted: same concentration as αVβ3 experiments (10 μM), n=4. The procedure:
Washed platelets are prepared as per the primary screening assay, suspended in HBMT containing 1 mM MgCl2 (platelet adhesion to collagen) or 2 mM CaCl2/1 mM MgCl2 (platelet adhesion to fibrinogen) and adjusted to a count of 250×10^9/L. HEK293 cells stably expressing normal human αVβ3 or normal human αIIbβ3 are suspended in HBMT containing either 1 mM MgCl2 (HEK293 cells expressing αVβ3 for adhesion to vitronectin) or 2 mM CaCl2/1 mM MgCl2 (HEK293 cells expressing αIIbβ3 for adhesion to fibrinogen); the cell counts are adjusted to 10^6/mL. Polystyrene 96-well microtiter plates (Nunc) are coated with either fibrinogen (50 μg/mL), vitronectin (5 μg/mL), or collagen (33 μg/mL, rat tail type 1; Becton Dickinson) for 1 hour, and blocked with HBMT for at least 1 hour. Platelets and cells are treated with the compound of Example 27 of the current invention or 2-ethyl-7-(piperazin-1-yl)-5H-[1,3,4]thiadiazolo-[3,2-a]pyrimidin-5-one of U.S. Ser. No. 12/514,286 in the presence or absence of anti-α2β1 mAb 6F1, anti-αIIbβ3 mAb 10E5, anti-αIIbβ3 mAb 10E5+αVβ3 mAb 7E3, αVβ3-specific mAb LM609, or anti-αVβ3+αIIbβ3 mAb 7E3, for 15 minutes at 37° C. before being added to the microtiter wells. After adhering for 1 hour at either 22° C. (platelets) or 37° C. […]

For the next experiment, the system named is rat platelets. Nature of the experiment: ADP-induced platelet aggregation, rat PRP (Example 45). To be noted: 1 μM. As for the experimental part: Blood may be drawn via cardiac puncture from anesthetized Sprague Dawley rats (Taconic, Hudson, N.Y.), WT C57B1/6 mice (Jackson Laboratories, Bar Harbor, Me.), and mice expressing hαIIb/mβ3 and diluted 1:1 with a mixture of 4 parts 0.165 […], pH 7.4 containing 2 mM CaCl2 and 1 mM MgCl2. Blood from consenting human volunteers is obtained from a peripheral vein using a 19 gauge needle and anticoagulated with 1:10 vol 3.8% sodium citrate. Platelet-rich plasma (PRP) may be isolated by centrifugation at 22° C. at 350 g for 10 minutes (rats); 250 g for 2.5 minutes (mice); or 650 g for 4 minutes (human). Mouse PRP samples may be adjusted to 400,000 platelets/μl with the buffer used for dilution and human PRP may be adjusted to 300,000 platelets/μl with platelet-poor plasma. […] Platelet aggregation may be induced by adding to PRP adenosine diphosphate (ADP) at 30 μM (rats and WT mice), 20 or 30 μM (hαIIb/mβ3 mice), or 5 μM (humans), and light transmission may be measured over time in an aggregometer (Kowa AG-10E, Tokyo, Japan) with stirring. Percent inhibition may be calculated by comparing the initial slope of untreated samples to the samples treated with the Compounds of the Invention.

A further experiment relates to platelets. Put plainly: Platelet adhesion assay: calcein-labeled platelets on fibrinogen-coated wells. The conditions noted are these: Homo sapiens, mean±SD. As for the experimental part: Thirty microliters of human fibrinogen (50 μg/mL) in Tris/saline (100 mM NaCl, 50 mM Tris/HCl, pH 7.4; American Diagnostica, Stamford, Conn.) are added to black, clear-bottom, untreated polystyrene, nonsterile 384-well microtiter plate wells (Corning no. 3711; Acton, Mass.). […] An additional wash is performed using HBMT with 1 mM MgCl2 and 2 mM CaCl2. Calcein-labeled platelets (final concentration 1×10^11/L) are treated with selected Compounds of the Invention (final concentration of 100 μM, 30 μM, 10 μM or 1 μM) at 22° C. for 20 minutes. Thirty microliters of platelets are then added to the wells. After 1 hour of adhesion, wells are washed 3 times with HBMT-1 mM MgCl2/2 mM CaCl2 and the plates are read by a fluorescent microtiter plate reader (Envision; Perkin Elmer) to detect calcein fluorescence (490 nm excitation and 515 nm emission). Negative controls consist of wells containing platelets without compounds of the invention.

The target of a further experiment is T2, αIIbβ3 (Homo sapiens, UniProt P05106+P08514).
T2 construct: Washed platelets are prepared in HBMT containing 2 mM CaCl2/1 mM MgCl2; endogenous in cells; host or cells: washed platelets
Put plainly: Induction of ligand-induced binding site (LIBS) epitopes, flow cytometry of washed platelets. To be noted: eptifibatide 10 μM = 100%, Example 27 at 100 μM. The procedure: Washed platelets are prepared in HBMT containing 2 mM CaCl2/1 mM MgCl2. […] Fluorescently labeled monoclonal antibodies (PMI-1, LIBS-1, AP5, or 10E5; Alexa-488 conjugated; Invitrogen) are then added (20 μL, final concentration: 5 μg/mL) and incubated for 30 minutes at 22° C. in the dark, after which samples are diluted 1:10 in HBMT with CaCl2/MgCl2 for analysis by flow cytometry (FACSCalibur; Becton Dickinson, Franklin Lakes, N.J.). Antibody binding is reported as the geometric mean fluorescence intensity; nonspecific binding is determined by adding a 50-fold excess of unlabeled antibody before adding the labeled antibody. The net normalized fluorescence intensity in the presence of eptifibatide (10 μM, 30 min incubation at 22° C.) is assigned the value of 100%

Values joined by “and” are separate entries in the source; they are usually repeats but may differ in a detail not shown here. Identical values can stand only once.

The term inhibition denotes the change of the read-out against control, counted positive when it falls.

T2 sequence (P08514 32-887 limits assumed): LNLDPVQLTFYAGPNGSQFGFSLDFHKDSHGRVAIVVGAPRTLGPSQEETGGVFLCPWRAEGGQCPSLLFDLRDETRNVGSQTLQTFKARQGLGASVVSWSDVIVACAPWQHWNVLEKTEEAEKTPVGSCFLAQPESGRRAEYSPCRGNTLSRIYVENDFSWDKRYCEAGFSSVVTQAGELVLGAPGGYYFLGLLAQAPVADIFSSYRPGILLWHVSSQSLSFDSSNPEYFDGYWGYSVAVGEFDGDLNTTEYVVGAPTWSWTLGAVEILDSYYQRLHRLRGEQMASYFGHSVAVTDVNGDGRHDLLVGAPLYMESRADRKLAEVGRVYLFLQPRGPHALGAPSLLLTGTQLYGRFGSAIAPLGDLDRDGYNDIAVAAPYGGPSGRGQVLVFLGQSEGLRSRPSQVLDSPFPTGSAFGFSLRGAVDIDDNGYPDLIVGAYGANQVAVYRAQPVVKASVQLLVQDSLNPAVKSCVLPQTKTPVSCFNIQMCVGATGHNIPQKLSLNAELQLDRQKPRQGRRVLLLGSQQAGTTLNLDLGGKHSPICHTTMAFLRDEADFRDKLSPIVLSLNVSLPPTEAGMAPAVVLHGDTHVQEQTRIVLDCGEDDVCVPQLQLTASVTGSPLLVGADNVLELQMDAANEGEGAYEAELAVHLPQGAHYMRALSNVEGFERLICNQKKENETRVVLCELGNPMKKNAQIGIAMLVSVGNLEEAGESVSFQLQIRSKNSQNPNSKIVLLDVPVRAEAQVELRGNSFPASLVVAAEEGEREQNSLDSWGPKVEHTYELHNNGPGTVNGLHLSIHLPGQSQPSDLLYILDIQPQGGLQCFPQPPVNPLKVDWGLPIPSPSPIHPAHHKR
T2 sequence (P08514 891-1039 partner limits assumed): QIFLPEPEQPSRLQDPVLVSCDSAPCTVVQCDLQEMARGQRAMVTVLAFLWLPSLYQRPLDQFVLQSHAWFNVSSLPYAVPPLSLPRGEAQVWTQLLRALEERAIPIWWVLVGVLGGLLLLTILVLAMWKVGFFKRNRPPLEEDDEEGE
T2 sequence (P05106 27-788): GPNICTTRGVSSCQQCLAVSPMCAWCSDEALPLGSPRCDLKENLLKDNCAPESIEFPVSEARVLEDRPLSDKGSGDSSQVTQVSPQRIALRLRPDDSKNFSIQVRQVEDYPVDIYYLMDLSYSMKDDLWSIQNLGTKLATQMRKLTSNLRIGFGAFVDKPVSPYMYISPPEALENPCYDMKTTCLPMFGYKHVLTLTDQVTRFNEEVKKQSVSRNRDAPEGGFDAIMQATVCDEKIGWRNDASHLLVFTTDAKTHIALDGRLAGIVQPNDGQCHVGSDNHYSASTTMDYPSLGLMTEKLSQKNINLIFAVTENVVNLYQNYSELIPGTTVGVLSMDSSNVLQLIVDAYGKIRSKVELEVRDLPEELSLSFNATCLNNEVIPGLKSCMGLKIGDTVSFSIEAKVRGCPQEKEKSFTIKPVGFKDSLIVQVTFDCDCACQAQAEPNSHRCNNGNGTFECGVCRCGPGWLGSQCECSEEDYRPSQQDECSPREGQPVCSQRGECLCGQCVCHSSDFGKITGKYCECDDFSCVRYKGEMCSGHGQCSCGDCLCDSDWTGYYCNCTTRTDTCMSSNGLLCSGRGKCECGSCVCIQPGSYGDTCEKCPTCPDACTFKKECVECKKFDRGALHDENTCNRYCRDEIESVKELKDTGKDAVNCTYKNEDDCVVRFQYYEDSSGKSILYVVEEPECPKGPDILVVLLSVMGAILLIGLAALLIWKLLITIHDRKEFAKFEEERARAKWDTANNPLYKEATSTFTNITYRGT
T1 sequence (P08514 32-887 limits assumed): as the sequence (P08514 32-887 limits assumed) above
T1 sequence (P08514 891-1039 partner limits assumed): as the sequence (P08514 891-1039 partner limits assumed) above
T1 sequence (P05106 27-788): as the sequence (P05106 27-788) above

`NCC(=O)Nc1cccc(-c2nn3c(=O)cc(N4CCNCC4)nc3s2)c1` [Example 27, 2-amino-N-(3-(5-oxo-7-(piperazin-1-yl)-5H-[1,3,4]thiadiazolo[3,2-a]pyrimidin-2-yl)phenyl)acetamide]: the inhibition at 10 µM in experiment [1] worked out at 65 ± 5%. The “inhibition of rat platelet aggregation induced by ADP” value in the experiment with rat platelets is recorded as “does not inhibit either mouse or rat platelet aggregation”. In addition, the inhibition at 10 µM with platelets (10 μM) was 66 ± 10%. For the same molecule, in the experiment on platelets (30 μM, 5 separate experiments), the inhibition at 30 µM is 80 ± 13%. Further, in the experiment with platelets (100 μM, 5 separate experiments), the inhibition at 100 µM is 83 ± 7%. In addition, on αIIbβ3, the “AP5 binding, % of the amount in the presence of eptifibatide” value is 18±5% and 18%; the “LIBS1 binding after 30 min, % of the amount in the presence of eptifibatide” value was found to be 21±3%; the “PMI-1 binding, % of the amount bound by platelets treated with eptifibatide” value stood at 82±13%.
